Where two headings read alike, the source gives them in different places.
Tests used:
Assay in all cases: BROMOscan ligand-binding assay
BRD3(1,2) = BRD3(1,2) (Homo sapiens, UniProt Q15059)
From the text: (§1) BROMOscan is a binding assay based on the well-known KINOMEscan technology. This assay measures the binding of a DNA-tagged bromodomain to an immobilized BRD ligand. If an inhibitor is present, it will compete with the bromodomain binding to the immobilized ligand, resulting in reduction of a quantitative PCR (qPCR) signal in a dose-dependent manner.

PCAF = target: T1, PCAF (Homo sapiens, UniProt Q92831)
T1 sequence (Q92831 723-827 limits assumed): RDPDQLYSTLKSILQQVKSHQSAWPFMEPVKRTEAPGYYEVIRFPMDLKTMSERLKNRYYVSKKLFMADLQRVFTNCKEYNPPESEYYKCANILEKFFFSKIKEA
From the text: as §1

BRDT(1) = BRDT(1) (Homo sapiens, UniProt Q58F21)
From the text: as §1

BRDT(2) = BRDT(2) (Homo sapiens, UniProt Q58F21)
From the text: as §1

EP300 = target: T2, EP300 (Homo sapiens, UniProt Q09472)
T2 sequence (Q09472 1049-1156 limits assumed): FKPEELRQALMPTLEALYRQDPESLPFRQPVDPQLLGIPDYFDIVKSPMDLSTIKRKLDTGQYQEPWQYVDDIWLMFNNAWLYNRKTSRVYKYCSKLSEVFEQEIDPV
From the text: as §1

TRIM33(PHD,BRD) = target: T3, TRIM33(PHD,BRD) (Homo sapiens, UniProt Q9UPN9)
T3 sequence (Q9UPN9 882-1087 limits assumed): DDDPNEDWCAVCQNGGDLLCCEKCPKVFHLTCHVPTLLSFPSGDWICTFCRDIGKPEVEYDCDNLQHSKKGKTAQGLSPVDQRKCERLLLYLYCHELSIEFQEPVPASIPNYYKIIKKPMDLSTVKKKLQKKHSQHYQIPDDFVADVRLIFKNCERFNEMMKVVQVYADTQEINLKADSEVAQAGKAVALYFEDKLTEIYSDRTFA
From the text: as §1

BRPF3 = target: T4, BRPF3 (Homo sapiens, UniProt Q9ULD4)
T4 sequence (Q9ULD4 589-693 limits assumed): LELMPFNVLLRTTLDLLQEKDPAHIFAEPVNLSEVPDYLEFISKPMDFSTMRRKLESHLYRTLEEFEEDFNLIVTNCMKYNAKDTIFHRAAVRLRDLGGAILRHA
From the text: as §1

CECR2 = CECR2 (Homo sapiens, UniProt Q9BXF3)
CECR2, sequence (Q9BXF3 434-538 limits assumed): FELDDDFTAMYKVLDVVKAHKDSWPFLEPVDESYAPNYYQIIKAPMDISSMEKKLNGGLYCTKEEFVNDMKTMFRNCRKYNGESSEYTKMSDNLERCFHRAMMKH
From the text: as §1

BRD8(1) = BRD8(1) (Homo sapiens, UniProt Q9H0E9)
BRD8(1), sequence (Q9H0E9 706-811 limits assumed): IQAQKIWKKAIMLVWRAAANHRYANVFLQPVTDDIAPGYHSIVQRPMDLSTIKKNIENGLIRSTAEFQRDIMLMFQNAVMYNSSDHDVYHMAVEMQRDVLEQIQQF
From the text: as §1

ATAD2B = target: T5, ATAD2B (Homo sapiens, UniProt Q9ULI0)
T5 sequence (Q9ULI0 951-1066 limits assumed): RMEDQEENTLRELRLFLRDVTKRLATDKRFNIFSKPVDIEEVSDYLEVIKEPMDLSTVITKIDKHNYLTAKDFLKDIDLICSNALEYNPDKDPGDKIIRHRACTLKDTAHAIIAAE
From the text: as §1

[1] = KD (BROMOscan), sheet prints no unit (nM)
[2] = read-out: KD (BROMOscan), sheet prints no unit (nM)

BRD3(1,2), sequence (Q15059 24-416 limits assumed): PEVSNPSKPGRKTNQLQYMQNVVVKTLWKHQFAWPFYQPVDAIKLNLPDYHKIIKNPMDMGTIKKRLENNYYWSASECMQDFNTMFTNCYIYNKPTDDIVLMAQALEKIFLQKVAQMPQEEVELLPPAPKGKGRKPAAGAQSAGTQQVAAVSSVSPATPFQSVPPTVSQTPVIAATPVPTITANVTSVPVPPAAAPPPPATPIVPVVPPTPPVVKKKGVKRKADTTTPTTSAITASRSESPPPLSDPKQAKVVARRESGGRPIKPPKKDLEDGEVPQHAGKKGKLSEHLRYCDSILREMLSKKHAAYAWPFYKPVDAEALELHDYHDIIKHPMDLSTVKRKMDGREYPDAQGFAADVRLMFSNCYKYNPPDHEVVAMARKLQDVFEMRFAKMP

## CCC(=O)N1CCOc2c(cc(-c3ccc(OC)c(OC)c3)cc2OCC2CCCN(C)C2)C1 (stereo not drawn) [I-CBP112]
BRD3(1,2); KD, BROMOscan Gene Symbol BRD3(1,2)
  Kd: 6300 nM
PCAF; KD, PCAF
  Kd: 77000 nM
BRDT(1); KD, BROMOscan Gene Symbol BRDT(1)
  Kd: 4200 nM
BRDT(2); KD, BROMOscan Gene Symbol BRDT(2)
  Kd: 49000 nM
EP300; KD, EP300
  Kd: 120 nM
TRIM33(PHD,BRD); [1]
  Kd: > 30000 nM
TRIM33(PHD,BRD); KD, TRIM33(PHD,Bromo.)
  Kd: > 100000 nM
BRPF3; KD, BRPF3
  Kd: 95000 nM
CECR2; KD, CECR2
  Kd: 17000 nM
BRD8(1); [1]
  Kd: > 30000 nM
BRD8(1); KD, BROMOscan Gene Symbol BRD8(1)
  Kd: > 100000 nM
ATAD2B; KD, BROMOscan Gene Symbol ATAD2B
  Kd: 71000 nM

## O=C(C=CN1[C@H]2CC[C@@H]1c1ncnc(NC3CC3)c1C2)c1ccccc1O [PFI-3 D1]
BRD3(1,2); BROMOscan, BRD3(1,2)
  Kd: > 30000 nM
PCAF; BROMOscan, PCAF
  Kd: > 30000 nM
BRDT(1); BROMOscan, BRDT(1)
  Kd: 24000 nM
BRDT(2); BROMOscan, BRDT(2)
  Kd: > 30000 nM
EP300; BROMOscan, EP300
  Kd: > 30000 nM
TRIM33(PHD,BRD); BROMOscan, TRIM33(PHD,Bromo.)
  Kd: > 30000 nM
BRPF3; BROMOscan, BRPF3
  Kd: > 30000 nM
CECR2; BROMOscan, CECR2
  Kd: > 30000 nM
BRD8(1); BROMOscan, BRD8(1)
  Kd: > 30000 nM
ATAD2B; BROMOscan, ATAD2B
  Kd: > 30000 nM

## Cc1cc(=O)n(C)c2cc(N3C(=O)CC[C@H](NS(=O)(=O)CC(C)C)[C@H]3c3ccc(Cl)cc3)ccc12 [LP-99]
BRD3(1,2); BROMOscan, BRD3(1,2)
  Kd: 47000 nM
PCAF; BROMOscan, PCAF
  Kd: > 50000 nM
BRDT(1); BROMOscan, BRDT(1)
  Kd: > 50000 nM
BRDT(2); BROMOscan, BRDT(2)
  Kd: 33000 nM
EP300; BROMOscan, EP300
  Kd: > 50000 nM
TRIM33(PHD,BRD); BROMOscan, TRIM33(PHD,Bromo.)
  Kd: > 50000 nM
BRPF3; BROMOscan, BRPF3
  Kd: > 50000 nM
CECR2; BROMOscan, CECR2
  Kd: > 50000 nM
BRD8(1); BROMOscan, BRD8(1)
  Kd: > 50000 nM
ATAD2B; ATAD2B
  Kd: > 50000 nM

## COc1cc2c(cc1NS(=O)(=O)c1ccc(Br)cc1C)n(C)c(=O)n2C [OF-1]
BRD3(1,2); BRD3(1,2)
  Kd: 4900 nM
PCAF; PCAF
  Kd: 12000 nM
BRDT(1); BRDT(1)
  Kd: 3500 nM
BRDT(2); BRDT(2)
  Kd: 22000 nM
EP300; EP300
  Kd: 47000 nM
TRIM33(PHD,BRD); TRIM33(PHD,Bromo.)
  Kd: 40000 nM
CECR2; CECR2
  Kd: > 50000 nM
CECR2; [2]
  Kd: > 30000 nM
BRD8(1); BRD8(1)
  Kd: > 50000 nM
BRD8(1); [2]
  Kd: > 30000 nM
ATAD2B; ATAD2B
  Kd: 29000 nM

## COc1ccc(CCc2nc3cc(-c4c(C)noc4C)ccc3n2C[C@H](C)N2CCOCC2)cc1Cl [SGC-CBP30]
BRD3(1,2); KD, BROMOscan, BRD3(1,2)
  Kd: 1100 nM
PCAF; [1]
  Kd: > 30000 nM
PCAF; KD, BROMOscan, PCAF
  Kd: > 100000 nM
BRDT(1); KD, BROMOscan, BRDT(1)
  Kd: 2600 nM
BRDT(2); [1]
  Kd: > 30000 nM
BRDT(2); KD, BROMOscan, BRDT(2)
  Kd: > 100000 nM
TRIM33(PHD,BRD); [1]
  Kd: > 30000 nM
TRIM33(PHD,BRD); KD, BROMOscan, TRIM33(PHD,Bromo.)
  Kd: > 100000 nM
BRPF3; [1]
  Kd: > 30000 nM
BRPF3; KD, BROMOscan, BRPF3
  Kd: > 100000 nM
CECR2; KD, BROMOscan, CECR2
  Kd: 7900 nM
BRD8(1); [1]
  Kd: > 30000 nM
BRD8(1); KD, BROMOscan, BRD8(1)
  Kd: > 100000 nM
ATAD2B; [1]
  Kd: > 30000 nM
ATAD2B; KD, BROMOscan, ATAD2B
  Kd: > 100000 nM

## O=C(C=CN1CC2CC1CN2c1ccccn1)c1ccccc1O (stereo not drawn) [PFI-3]
BRD3(1,2); [1]
  Kd: > 30000 nM
BRD3(1,2); KD, BRD3(1,2)
  Kd: > 100000 nM
PCAF; [1]
  Kd: > 30000 nM
PCAF; KD, PCAF
  Kd: > 100000 nM
BRDT(1); [1]
  Kd: > 30000 nM
BRDT(1); KD, BRDT(1)
  Kd: > 100000 nM
BRDT(2); [1]
  Kd: > 30000 nM
BRDT(2); KD, BRDT(2)
  Kd: > 100000 nM
EP300; [1]
  Kd: > 30000 nM
EP300; KD, EP300
  Kd: > 100000 nM
TRIM33(PHD,BRD); [1]
  Kd: > 30000 nM
TRIM33(PHD,BRD); KD, TRIM33(PHD,Bromo.)
  Kd: > 100000 nM
BRPF3; [1]
  Kd: > 30000 nM
BRPF3; KD, BRPF3
  Kd: > 100000 nM
CECR2; [1]
  Kd: > 30000 nM
CECR2; KD, CECR2
  Kd: > 100000 nM
BRD8(1); [1]
  Kd: > 30000 nM
BRD8(1); KD, BRD8(1)
  Kd: > 100000 nM
ATAD2B; [1]
  Kd: > 30000 nM
ATAD2B; KD, ATAD2B
  Kd: > 100000 nM

Source: article PMC6478789, “A chemical toolbox for the study of bromodomains and epigenetic signaling” (Nature Communications, 2019)
